{"source": "patent US10538535B2", "about": "“Antitumoral compounds” (priority 2017, dated 2020)", "key": {"[1]": {"test_system": "H526 tumors", "assay": "In vivo xenograft, human lung (SCLC) H526", "conditions": "iv weekly, 47-R 0.1 mg/Kg, Compound D 0.5 mg/Kg"}, "[2]": {"test_system": "PSN1 cells", "assay": "cells", "conditions": "Homo sapiens, PSN1, 72 h", "summary_of_the_method": "(§1)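 Cells were seeded at 5000 per well, attached overnight in drug-free medium, then exposed for 72 hours to ten 2/5 serial dilutions (10 to 0.003 μg/mL, 1% final DMSO) in triplicate. Growth was measured by SRB staining against a time-zero plate, with NCI-algorithm four-parameter logistic fits.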"}, "[3]": {"test_system": "A549 cells", "assay": "cells", "conditions": "Homo sapiens, A549, 72 h", "summary_of_the_method": "as §1"}, "[4]": {"test_system": "MDA-MB-231 cells", "assay": "cells", "conditions": "Homo sapiens, MDA-MB-231, 72 h", "summary_of_the_method": "as §1"}, "[5]": {"test_system": "HT29 cells", "assay": "cells", "conditions": "Homo sapiens, HT-29, 72 h", "summary_of_the_method": "as §1"}, "[6]": {"test_system": "HGC27 tumors", "description": "Female athymic nu/nu mice (Harlan Laboratories Models, S. L. Barcelona, Spain or Envigo, Spain) were utilized for all experiments. Animal were housed in individually ventilated cages Sealsafe® Plus, Techniplast S.P.A.), up to ten per cage on a 12-hour light-dark cycle at 21-23° C. and 40-60% humidity. […] Animals were acclimated for at least 5 days prior to tumor implantation with a tumor cell suspension.\nHGC27 cells were maintained in vitro at 37° C. with 5% CO2 in Iscove's Modified Dulbecco's Medium (Sigma Aldrich, Co). Culture cells were passage every 3 to 5 days on reaching confluence. Each animal was subcutaneously implanted (on the right flank using 26 G needle and a 1 cc syringe) at 4-6 weeks of age with 5×10^6 HGC-27 cells suspended in 0.05 mL of a solution consisting of 50% Matrigel® (Corning Incorporated Life Sciences), 50% medium without serum or antibiotics.\nTreatment tolerability was assessed by monitoring body weight evolution, clinical signs of systemic toxicity, as well as evidences of local damage in the injection site.\nTreatments producing >20% lethality and/or 20% net body weight loss were considered toxic."}}, "note": "Where two headings read alike, the source gives them in different places."}
{"smiles": "COc1c(C)cc2c(c1O)[C@@H]1[C@@H]3[C@@H]4SC[C@]5(N[C@@H](C)Cc6c5[nH]c5ccccc65)C(=O)OC[C@@H](c5c6c(c(C)c(OC(C)=O)c54)OCO6)N3[C@@H](O)[C@H](C2)N1C", "note": "[D]", "values": [{"measurement": "Median Tumor Volume", "setting": "[1]; Table 56, Day 28", "result": 4.0, "unit": "mm^3"}, {"measurement": "Median Tumor Volume", "setting": "[1]; Table 56, Day 35", "result": 4.0, "unit": "mm^3"}, {"measurement": "Median Tumor Volume", "setting": "[1]; Table 56, Day 42", "result": 4.0, "unit": "mm^3"}, {"measurement": "Median Tumor Volume", "setting": "[1]; Table 56, Day 49", "result": 4.0, "unit": "mm^3"}, {"measurement": "Median Tumor Volume", "setting": "[1]; Table 56, Day 56", "result": 4.0, "unit": "mm^3"}, {"measurement": "Median Tumor Volume", "setting": "[1]; Table 56, Day 63", "result": 4.0, "unit": "mm^3"}, {"measurement": "Median Tumor Volume", "setting": "[1]; Table 56, Day 70", "result": 4.0, "unit": "mm^3"}, {"measurement": "Median Tumor Volume", "setting": "[1]; Table 56, Day 77", "result": 4.0, "unit": "mm^3"}, {"measurement": "Median Tumor Volume", "setting": "[1]; Table 56, Day 84", "result": 4.0, "unit": "mm^3"}, {"measurement": "Median Tumor Volume", "setting": "[1]; Table 56, Day 91", "result": 4.0, "unit": "mm^3"}, {"measurement": "Median Tumor Volume", "setting": "[1]; Table 56, Day 98", "result": 4.0, "unit": "mm^3"}, {"measurement": "Median Tumor Volume", "setting": "[1]; Table 56, Day 105", "result": 4.0, "unit": "mm^3"}, {"measurement": "Median Tumor Volume", "setting": "[1]; Table 56, Day 112", "result": 4.0, "unit": "mm^3"}, {"measurement": "Median Tumor Volume", "setting": "[1]; Table 56, Day 119", "result": 4.0, "unit": "mm^3"}, {"measurement": "Median Tumor Volume", "setting": "[1]; Table 56, Day 126", "result": 4.0, "unit": "mm^3"}, {"measurement": "Median Tumor Volume", "setting": "[1]; Table 56, Day 133", "result": 4.0, "unit": "mm^3"}, {"measurement": "Median Tumor Volume", "setting": "[1]; Table 56, Day 140", "result": 4.0, "unit": "mm^3"}, {"measurement": "Median Tumor Volume", "setting": "[1]; Table 56, Day 147", "result": 4.0, "unit": "mm^3"}, {"measurement": "Median Tumor Volume", "setting": "[1]; Table 56, Day 165", "result": 4.0, "unit": "mm^3"}, {"measurement": "Median Tumor Volume", "setting": "[1]; Table 56, Day 175", "result": 4.0, "unit": "mm^3"}, {"measurement": "Median Tumor Volume", "setting": "[1]; Table 56, Day 191", "result": 4.0, "unit": "mm^3"}, {"measurement": "Median Tumor Volume", "setting": "[1]; Table 56, Day 205", "result": 4.0, "unit": "mm^3"}, {"measurement": "GI50", "setting": "[2]", "result": 20.8, "unit": "nM"}, {"measurement": "CC50", "setting": "[2]; read-out: LC50", "result": 24.7, "unit": "nM"}, {"measurement": "IC (TGI)", "setting": "[2]; read-out: TGI", "result": 22.1, "unit": "nM"}, {"measurement": "GI50", "setting": "[3]", "result": 12.5, "unit": "nM"}, {"measurement": "CC50", "setting": "[3]; read-out: LC50", "result": "> 130", "unit": "nM"}, {"measurement": "IC (TGI)", "setting": "[3]; read-out: TGI", "result": 28.6, "unit": "nM"}, {"measurement": "GI50", "setting": "[4]", "result": 9.88, "unit": "nM"}, {"measurement": "CC50", "setting": "[4]; read-out: LC50", "result": 53.3, "unit": "nM"}, {"measurement": "IC (TGI)", "setting": "[4]; read-out: TGI", "result": 19.5, "unit": "nM"}, {"measurement": "GI50", "setting": "[5]", "result": 10.3, "unit": "nM"}, {"measurement": "CC50", "setting": "[5]; read-out: LC50", "result": "> 130", "unit": "nM"}, {"measurement": "IC (TGI)", "setting": "[5]; read-out: TGI", "result": 23.4, "unit": "nM"}, {"measurement": "Median Tumor Volume", "setting": "[6]; Table 28, Day 0, iv Days 0, 7, 14", "result": 157.4, "unit": "mm^3"}, {"measurement": "Median Tumor Volume", "setting": "[6]; Table 28, Day 2, iv Days 0, 7, 14", "result": 327.6, "unit": "mm^3"}, {"measurement": "Median Tumor Volume", "setting": "[6]; Table 28, Day 5, iv Days 0, 7, 14", "result": 439.6, "unit": "mm^3"}, {"measurement": "Median Tumor Volume", "setting": "[6]; Table 28, Day 7, iv Days 0, 7, 14", "result": 418.7, "unit": "mm^3"}, {"measurement": "Median Tumor Volume", "setting": "[6]; Table 28, Day 9, iv Days 0, 7, 14", "result": 567.9, "unit": "mm^3"}, {"measurement": "Median Tumor Volume", "setting": "[6]; Table 28, Day 12, iv Days 0, 7, 14", "result": 537.0, "unit": "mm^3"}, {"measurement": "Median Tumor Volume", "setting": "[6]; Table 28, Day 14, iv Days 0, 7, 14", "result": 654.6, "unit": "mm^3"}, {"measurement": "Median Tumor Volume", "setting": "[6]; Table 28, Day 16, iv Days 0, 7, 14", "result": 672.4, "unit": "mm^3"}, {"measurement": "Median Tumor Volume", "setting": "[6]; Table 28, Day 19, iv Days 0, 7, 14", "result": 843.0, "unit": "mm^3"}, {"measurement": "Median Tumor Volume", "setting": "[6]; Table 28, Day 21, iv Days 0, 7, 14", "result": 842.7, "unit": "mm^3"}, {"measurement": "Median Tumor Volume", "setting": "[6]; Table 28, Day 23, iv Days 0, 7, 14", "result": 963.7, "unit": "mm^3"}, {"measurement": "Median Tumor Volume", "setting": "[6]; Table 28, Day 26, iv Days 0, 7, 14", "result": 1203.3, "unit": "mm^3"}, {"measurement": "Median Tumor Volume", "setting": "[6]; Table 28, Day 28, iv Days 0, 7, 14", "result": 1589.7, "unit": "mm^3"}, {"measurement": "Median Tumor Volume", "setting": "[6]; Table 28, Day 30, iv Days 0, 7, 14", "result": 1777.6, "unit": "mm^3"}, {"measurement": "Median Tumor Volume", "setting": "[6]; Table 28, Day 33, iv Days 0, 7, 14", "result": 2146.2, "unit": "mm^3"}, {"measurement": "Median Tumor Volume", "setting": "[6]; iv, 0.5 mg/kg, 0 h", "result": 194.0, "unit": "mm^3"}, {"measurement": "Median Tumor Volume", "setting": "[6]; iv, 0.5 mg/kg, 48 h", "result": 324.2, "unit": "mm^3"}, {"measurement": "Median Tumor Volume", "setting": "[6]; iv, 0.5 mg/kg, 120 h", "result": 561.6, "unit": "mm^3"}, {"measurement": "Median Tumor Volume", "setting": "[6]; iv, 0.5 mg/kg, 168 h", "result": 504.2, "unit": "mm^3"}, {"measurement": "Median Tumor Volume", "setting": "[6]; iv, 0.5 mg/kg, 336 h", "result": 1056.8, "unit": "mm^3"}, {"measurement": "Median Tumor Volume", "setting": "[6]; iv, 0.5 mg/kg, 384 h", "result": 1440.2, "unit": "mm^3"}, {"measurement": "Median Tumor Volume", "setting": "[6]; iv, 0.5 mg/kg, 456 h", "result": 1717.9, "unit": "mm^3"}, {"measurement": "Median Tumor Volume", "setting": "[6]; iv, 0.5 mg/kg, 504 h", "result": 2043.4, "unit": "mm^3"}]}
